Results taken from patent US20250387771A1, “COMPOSITION COMPRISING BIODEGRADABLE MICROCAPSULES” (priority 2022, published 2025).

Test system: biological contamination of microcapsule compositions
Assay: Preservation of microcapsule compositions against biological contamination over time by conventional preservation agents
Settings: agent used alone; one month or more

| Compound | Prevention of biological contamination of microcapsule compositions over time |
| --- | --- |
| O=C(O)c1ccccc1 [benzoic acid] | unable, when used alone, to prevent the biological contamination of microcapsule compositions over time |
| p-hydroxybenzoic esters | unable, when used alone, to prevent the biological contamination of microcapsule compositions over time |
